Data taken from paper PMC8456977, “Inclusion Complexes of Gold(I)‐Dithiocarbamates with β‐Cyclodextrin: A Journey from Drug Repurposing towards Drug Discovery” (Chemistry (Weinheim an Der Bergstrasse, Germany), 2021).
One block for each compound: values may come before it.

Legend:
SK-OV-3 = experiment: Quantification of drug sensitivity (CellTiter-Blue), SK-OV-3; format: cell-based; conditions: SK-OV-3 (ovarian carcinoma), 72 h, 30-fold excess 2-hydroxypropyl-β-cyclodextrin, combination DSF/ATM 1:1
Description: (§1) Quantification of drug sensitivity (Figure 2A): Cell lines (including HT‐29) were obtained from ATCC or as gifts from other research groups at the DKFZ and checked for mycoplasma contamination and authenticity before use. Cell lines were seeded in 96‐well plates in RPMI‐1640 medium, supplemented with 10 % BCS (bovine calf serum) and 1 % Pen/Strep at a density of 2×10^4 cells/well. Disulfiram (DSF) and sodium aurothiomalate (ATM) were added at a fixed ratio of 1 : 1, formulated in a 30‐fold molar excess of 2HP‐β‐CD (2‐hydroxypropyl‐β‐cyclodextrin). ATM and DSF monotherapy was also done in the presence of 2HP‐β‐CD, to control for possible combination effects by 2HP‐β‐CD. All concentrations were applied in triplicate. After incubation at 37 °C for 72 h, CellTiter‐Blue (Promega) was added (10 μL/well). After incubation at 37 °C for 4 h, fluorescence (excitation filter: 550 nm, emission filter 590 nm) was determined in an Optima FLUOstar microplate reader (BMG Labtech). Mean values were calculated for each treatment and EC50 values were calculated from […] dose response curves.

HL-60 = experiment: Quantification of drug sensitivity (CellTiter-Blue), HL-60; format: cell-based; conditions: HL-60 (non-T cell leukemia), 72 h, 30-fold excess 2-hydroxypropyl-β-cyclodextrin, combination DSF/ATM 1:1
Description: as §1

MeWo = experiment: Quantification of drug sensitivity (CellTiter-Blue), MeWo; format: cell-based; conditions: MeWo (melanoma), 72 h, 30-fold excess 2-hydroxypropyl-β-cyclodextrin, combination DSF/ATM 1:1
Description: as §1

Calu-6 cells = experiment: Quantification of drug sensitivity (CellTiter-Blue), Calu-6; format: cell-based; conditions: Calu-6 (NSCLC), 72 h, 30-fold excess 2-hydroxypropyl-β-cyclodextrin, combination DSF/ATM 1:1
Description: as §1
Dose-Response Curves of ATM/DSF and 5
Figure S2: Dose-response curves of the s toichiometric mixture of ATM and DSF (blue) as well
as isolated 5 (red) for the treatment of Calu-6 cells (both in the presence of 30-fold excess of 2-
(also on this page, place not known: Normalized Proliferation (CellTiter-Blue) stoichiometric) […]

HCT 116 = experiment: Quantification of drug sensitivity (CellTiter-Blue), HCT 116; format: cell-based; conditions: HCT 116 (colon carcinoma), 72 h, 30-fold excess 2-hydroxypropyl-β-cyclodextrin, combination DSF/ATM 1:1
Description: as §1

HeLa = experiment: Quantification of drug sensitivity (CellTiter-Blue), HeLa; format: cell-based; conditions: HeLa (cervix carcinoma), 72 h, 30-fold excess 2-hydroxypropyl-β-cyclodextrin, combination DSF/ATM 1:1
Description: as §1

COLO-357 = experiment: Quantification of drug sensitivity (CellTiter-Blue), COLO-357; format: cell-based; conditions: COLO-357 (pancreatic cancer), 72 h, 30-fold excess 2-hydroxypropyl-β-cyclodextrin, combination DSF/ATM 1:1
Description: as §1

[1] = test system: cytoplasmic ROS in H838 cells (roGFP2-Orp1); experiment: ROS level in cytoplasm, roGFP2-Orp1 sensor; format: cell-based; conditions: 12.5 μM, DMSO stock or up to 32-fold excess of SBE-β-CD
Description: (§2) Measurement of ROS levels in cytoplasm and mitochondria (Figure 8): The effects of 33 and auranofin on roGFP2‐Orp1 oxidation were quantified in H838 cells stably expressing roGFP2‐Orp1 targeted either to cytoplasm or mitochondria as described in Ezerina et al.[28] Specifically, a 5 mM stock solution of 33 was prepared by directly dissolving solid 33 into 10 mM, 40 mM, 80 mM, and 160 mM solutions of SBE‐β‐CD (Biomol) in PBS (Gibco). A 100 mM auranofin (Sigma‐Aldrich) solution was prepared in DMSO (Sigma‐Aldrich). This was further diluted to 0.5 mM stock solutions of auranofin in 0 mM, 4 mM, 8 mM, and 16 mM SBE‐β‐CD in PBS. […] Non‐transduced H838 cells were seeded on the same plate to establish background fluorescence. The fluorescence intensity from these wells was subtracted from all the measurement results. To establish the signal baseline, the entire plate was measured every 3 min for 8 cycles in a CLARIOstar fluorescence plate reader (BMG Labtech), with excitation wavelengths of 400 nm and 485 nm, while measuring emission at 520 nm. […] The readout of the roGFP2 measurement is normalized to the positive (1.0) and the negative (0) controls using the following equation: OxDroGFP2=(I400sampleI485red)-(I400redI485sample)/(I400sample)I485red-I485ox+(I485sampleI400ox-I400red)
(§3) where I400 and I485 are the signal intensities measured at 520 nm after excitation at 400 nm and 485 nm, respectively. […]

[2] = test system: mitochondrial ROS in H838 cells (roGFP2-Orp1); experiment: ROS level in mitochondria, roGFP2-Orp1 sensor; format: cell-based; conditions: 12.5 μM, DMSO stock or up to 32-fold excess of SBE-β-CD
Description: as §2, §3

[3] = Solubility / solubilization in solvents and cyclodextrin (observations); format: physicochemical

Compound: O=C([O-])CC([S-])C(=O)[O-].[Au+].[Na+].[Na+] (stereo not shown) [ATM, sodium aurothiomalate]
EC50 (SK-OV-3): 260 µM
EC50 (HL-60): 330 µM
EC50 (MeWo): 130 µM
EC50 (Calu-6 cells): 360 µM
EC50 (HCT 116): 140 µM
EC50 (HeLa): 440 µM
EC50 (COLO-357): 96 µM

EC50 (SK-OV-3; Homo sapiens): 340 µM
EC50 (HL-60; Homo sapiens): 120 µM
EC50 (Calu-6 cells; Homo sapiens): 160 µM
EC50 (HCT 116; Homo sapiens): 3.4 µM
EC50 (HeLa; Homo sapiens): 320 µM
EC50 (COLO-357; Homo sapiens, COLO357): 82 µM
Compound: CCN(CC)C(=S)SSC(=S)N(CC)CC [DSF, disulfiram]
EC50 (MeWo; Homo sapiens): 290 µM

Compound: CC(=O)OC[C@H]1O[C@@H]([S-])[C@H](OC(C)=O)[C@@H](OC(C)=O)[C@@H]1OC(C)=O.CCP(CC)CC.[Au+] [auranofin]
cytoplasmic ROS (roGFP2-Orp1 oxidation) [1]: high levels of ROS
mitochondrial ROS (roGFP2-Orp1 oxidation) [2]: high levels of ROS

cyclodextrin required for solubilization [3]: > 30 molar equivalents
solubility in common/organic solvents ([3]; organic solvents including DMSO, ambient temperature): poor solubility
EC50 (Calu-6 cells): 1.6 µM
Compound: [Au(N,N‐diethyl)dtc]2 [compound 5]
